Experimental data published in article PMC6792352, “Limited Chemical Structural Diversity Found to Modulate Thyroid Hormone Receptor in the Tox21 Chemical Library” (Environmental Health Perspectives, 2019).
Counter-ions that a name gives are not always drawn.

Assay: in vitro
Details: rat, gh3-tre-luc cells

SMILES	CC50 at 24 h (AC50 (uM) modified / 1000)	other results
CO[C@H]1[C@@H](O)[C@H](N)[C@@H](O[C@H]2O[C@H]([C@H](C)N)CC[C@H]2N)[C@H](O)[C@@H]1N(C)C(=O)CN [Astromicin]	> 50 µM	
COc1ccc(C(c2ccc(OC)cc2)C(Cl)(Cl)Cl)cc1 [Methoxychlor]		CC50 at 24 h (AC50 (uM) modified / 1000, Tox21_110001=Tox21_400075, viability, 1 nM T3 present, 24 h): 76.1 µM
CCCN(CCC)N=O [N-Nitrosodipropylamine]		CC50 at 24 h (AC50 (uM) modified / 1000, Tox21_110001=Tox21_201860, viability, 1 nM T3 present, 24 h): > 90 µM
O=C(OC1CCCCC1)c1ccccc1C(=O)OC1CCCCC1 [Dicyclohexyl phthalate]	40.2 µM	
CN(C(=O)CO)c1c(I)c(C(=O)NCC(O)CO)c(I)c(C(=O)NCC(O)CO)c1I (stereo not shown) [Iomeprol]	> 50 µM	
CC1(C)[C@H](C(=O)O[C@H](C#N)c2cccc(Oc3ccccc3)c2)[C@@H]1C=C(Br)Br [Deltamethrin]	> 100 µM	
CCCCCCOC(=O)CCCCC [Hexyl hexanoate]	> 90 µM	
CCC(=O)O[C@@H](O[P@](=O)(CCCCc1ccccc1)CC(=O)N1C[C@H](C2CCCCC2)C[C@H]1C(=O)O)C(C)C [Fosinopril sodium]	> 50 µM	
CO/N=C(\C(=O)N[C@@H]1C(=O)N2C(C(=O)O)=C(CSc3nc(=O)c(=O)[nH]n3C)CS[C@H]12)c1csc(N)n1 [Ceftriaxone disodium trihydrate]	> 50 µM	
Cc1cccc(C)c1NC(=O)CN(CC(=O)O)CC(=O)O [Lidofenin]	> 50 µM	
Clc1ccc(Cl)cc1 [1,4-Dichlorobenzene]		CC50 at 24 h (AC50 (uM) modified / 1000, Tox21_110001=Tox21_111293, viability, 1 nM T3 present, 24 h): > 50 µM; CC50 at 24 h (AC50 (uM) modified / 1000, Tox21_110001=Tox21_200399, viability, 1 nM T3 present, 24 h): > 90 µM
Cn1cnc2ncnc(N)c21 [7-Methyladenine]	> 50 µM	
CC(Br)C(=O)O (stereo not shown) [2-Bromopropionic acid]		CC50 at 24 h (AC50 (uM) modified / 1000, Tox21_110001=Tox21_201417, viability, 1 nM T3 present, 24 h): > 90 µM
CCCN(CCC)CCc1cccc2c1CC(=O)N2 [Ropinirole]	> 50 µM	
CN(C)C(C)(C)CO [2-(Dimethylamino)-2-methylpropan-1-ol]	> 90 µM	
C=C[Si](OC)(OC)OC [Vinyltrimethoxysilane]	> 90 µM	
C=CC(C)(O)CC/C=C(\C)CCC=C(C)C (stereo not shown) [Nerolidol]	> 90 µM	
CCc1nccnc1CC [2,3-Diethylpyrazine]	> 30 µM	
O=C(O)CCc1nc2ccccc2[nH]1 [Procodazole]	> 50 µM	
C=CC(=O)OCC(COC(=O)C=C)(COC(=O)C=C)COC(=O)C=C [Pentaerythritol tetraacrylate]	3 µM	
COC(=O)[C@@H](N)CCCNC(=N)N[N+](=O)[O-] [L-Nitroarginine methyl ester]	> 50 µM	
COc1ccc(C(=O)c2ccc(C)cc2)c(O)c1 [Mexenone]	> 90 µM	
O=C(O)C[C@H](O)C[C@H](O)/C=C/c1c(C2CC2)nc2ccccc2c1-c1ccc(F)cc1 [Pitavastatin calcium]	> 50 µM	
CCOP(=O)(SC(C)CC)N1CCSC1=O (stereo not shown) [Fosthiazate]		CC50 at 24 h (AC50 (uM) modified / 1000, Tox21_110001=Tox21_301059, viability, 1 nM T3 present, 24 h): > 90 µM
CCCCS(=O)(=O)Cl [Butane-1-sulfonyl chloride]	> 90 µM	
O=S(=O)(c1ccccc1)c1ccc(Cl)cc1 [4-Chlorophenyl phenyl sulfone]	> 90 µM	

SMILES	CC50 at 24 h (AC50 (uM) modified / 1000)	other results
C#C[C@]1(O)CC[C@H]2[C@@H]3CCC4=Cc5oncc5C[C@]4(C)[C@H]3CC[C@@]21C [Danazol]	57.4 µM	
C1N2CN3CN1CN(C2)C3 [Methenamine]	> 50 µM	
Clc1ccc(C2(Cn3cncn3)OCCO2)c(Cl)c1 [Azaconazole]	> 90 µM	
CN(CCCN1c2ccccc2CCc2ccccc21)CC(=O)c1ccc(Cl)cc1 [Lofepramine hydrochloride]	22 µM	
CC(C)(C)C(=O)Cl [2,2-Dimethylpropanoyl chloride]	> 90 µM	
COc1nn(C(=O)NS(=O)(=O)c2ccccc2OC(F)(F)F)c(=O)n1C [Flucarbazone-sodium]	> 90 µM	
NCCNC(=O)c1ccc(Cl)cn1 [Lazabemide hydrochloride]	> 50 µM	
CCCCOCC1CO1 (stereo not shown) [Butyl glycidyl ether]	> 90 µM	
CCCOC(OCCC)OCCC [Tripropyl orthoformate]	> 90 µM	
On1ccccc1=S [Sodium (2-pyridylthio)-N-oxide]	1.83 µM	
CCOC(=O)c1ccc(C2CCC(NC[C@H](O)COc3ccc(O)c(NS(C)(=O)=O)c3)CC2)cc1 (stereo partly shown) [SAR 150640]	34.8 µM	
CCN1CCCC1CNC(=O)c1cc(S(N)(=O)=O)ccc1OC (stereo not shown) [Sulpiride]	> 90 µM	
O=C1NCCN1CCO [Hydroxyethyl imidazolidinone]	> 100 µM	
CCOC(=O)[C@H](CCc1ccccc1)N[C@H]1CS[C@H](c2cccs2)CN(CC(=O)O)C1=O [Temocapril hydrochloride]	> 50 µM	
CC1CN(c2cc3c(cc2F)c(=O)c(C(=O)O)cn3-c2ccc(F)cc2F)CCN1 (stereo not shown) [Temafloxacin]	> 50 µM	
NCCNCCN [Diethylenetriamine]	> 90 µM	
CNCC(=O)c1ccc(O)c(O)c1 [Adrenone]	> 50 µM	
Cc1ccc(OP(=O)(Oc2ccc(C)cc2C)Oc2ccc(C)cc2C)c(C)c1 [TXP]	> 100 µM	
Oc1cccc2cc3cccc(O)c3c(O)c12 [1,8,9-Trihydroxyanthracene]	> 90 µM	
c1ccc(CCCc2ccncc2)cc1 [4-(3-Phenylpropyl)pyridine]	> 90 µM	
CCCC(C)C1(CC)C(=O)NC(=O)NC1=O (stereo not shown) [Pentobarbital]	> 50 µM	
COC(=O)C1=CCCN(C)C1 [Arecoline]		CC50 at 24 h (AC50 (uM) modified / 1000, Tox21_110001=Tox21_110079, viability, 1 nM T3 present, 24 h): > 50 µM
CN1CCCN(C(c2ccccc2)c2ccc(Cl)cc2)CC1 (stereo not shown) [Homochlorcyclizine]	7.44 µM	
COC(=O)[C@@H]1CC2=CC(=O)CC[C@]2(C)[C@@]23O[C@@H]2C[C@@]2(C)[C@@H](CC[C@@]24CCC(=O)O4)[C@H]13 [Eplerenone]	> 50 µM	
CCOC(=O)CC(SP(=S)(OC)OC)C(=O)OCC (stereo not shown) [Malathion]		CC50 at 24 h (AC50 (uM) modified / 1000, Tox21_110001=Tox21_111175, viability, 1 nM T3 present, 24 h): > 50 µM; CC50 at 24 h (AC50 (uM) modified / 1000, Tox21_110001=Tox21_400048, viability, 1 nM T3 present, 24 h): > 90 µM
Cc1noc(NS(=O)(=O)c2ccc(N)cc2)c1C [Sulfisoxazole]	> 50 µM	

SMILES	CC50 at 24 h (AC50 (uM) modified / 1000)	other results
CC(=O)OC(C)C [Isopropyl acetate]	> 90 µM	
C=CCn1cc[n+](C)c1 [1-Allyl-3-methylimidazolium chloride]	> 90 µM	
CC(=O)N1C[C@H](O)C[C@H]1C(=O)O [Oxaceprol]	> 50 µM	
CCC(Cl)CCl (stereo not shown) [1,2-Dichlorobutane]		CC50 at 24 h (AC50 (uM) modified / 1000, Tox21_110001=Tox21_200147, viability, 1 nM T3 present, 24 h): > 90 µM
C[C@]12CC[C@H]3[C@@H](CC[C@@]45O[C@@H]4C(O)=C(C#N)C[C@]35C)[C@@H]1CC[C@@H]2O [Trilostane]	> 90 µM	
CCC(O)C(C)(C)C (stereo not shown) [2,2-Dimethyl-3-pentanol]	> 90 µM	
CC(C)CC(C)N(c1ccccc1)c1ccc(N)cc1 (stereo not shown) [N-(4-Methylpentan-2-yl)-N-phenylbenzene-1,4-diamine]	28.5 µM	
COc1c(Br)cc(Br)c(C)c1Br [1,3,5-Tribromo-2-methoxy-4-methylbenzene]	> 90 µM	
CC[C@H](C)COC(=O)/C=C/c1ccc(N=Cc2ccc(OC)cc2)cc1 [(+)-2-Methylbutyl-4-methoxybenzyladine-4'-aminocyannate]	> 90 µM	
O[C@@H]([C@H](O)[C@H](O)CBr)[C@H](O)CBr [Dibromomannitol]	> 90 µM	
CN(C[C@@H](CC[N+]12CCC(C3CCCCC3)(CC1)CC2)c1ccc(Cl)c(Cl)c1)C(=O)c1cc(C(F)(F)F)cc(C(F)(F)F)c1 [UK-337312]	17 µM	
CC(=O)O[C@]1(C(C)=O)CC[C@H]2[C@@H]3C[C@H](C)C4=CC(=O)CC[C@]4(C)[C@H]3CC[C@@]21C [Medroxyprogesterone acetate]	> 90 µM	
C[C@@H]1CN(c2c(F)c(N)c3c(=O)c(C(=O)O)cn(C4CC4)c3c2F)C[C@H](C)N1 [Sparfloxacin]	> 50 µM	
CC1(CO)CN(c2ccccc2)NC1=O (stereo not shown) [4-(Hydroxymethyl)-4-methyl-1-phenylpyrazolidin-3-one]	> 90 µM	
N#CC(C#N)=Cc1ccc(O)c(O)c1 [Tyrphostin 23]	16.8 µM	
Sc1nc(S)nc(S)n1 [Trisodium 2,4,6-trithioxo-1,3,5-triazinane-1,3,5-triide]	> 50 µM	
CCOc1ccc(NC(C)=O)cc1N [3-Amino-4-ethoxyacetanilide]	> 90 µM	
CC1(C)O[C@@H]2C[C@H]3[C@@H]4C[C@H](F)C5=CC(=O)C=C[C@]5(C)[C@H]4[C@@H](O)C[C@]3(C)[C@]2(C(=O)CO)O1 [Flunisolide]	> 20 µM	
CC(C)c1ccc2oc3nc(N)c(C(=O)O)cc3c(=O)c2c1 [Amlenanox]	> 50 µM	
CC1(C)S[C@@H]2[C@H](NC(=O)C3(N)CCCCC3)C(=O)N2[C@H]1C(=O)O [Cyclacillin]	> 50 µM	
FC(F)(F)c1ccccc1-n1ccnc1 [1-[2-(Trifluoromethyl)phenyl]-1H-imidazole]	> 50 µM	
CCNC(=O)N1CCN(CCCC(c2ccc(F)cc2)c2ccc(F)cc2)CC1 [Amperozide hydrochloride]	19.7 µM	
CS(=O)(=O)c1ccc(C2=C(c3ccccc3)C(=O)OC2)cc1 [Rofecoxib]	> 50 µM	
C[Si](C)(C)O[Si](C)(C)O[Si](C)(C)C [Octamethyltrisiloxane]	> 90 µM	
CCOC(=O)c1ccc(C)cc1 [Ethyl 4-methylbenzoate]	> 90 µM	
